Measurements from the NIST ThermoML archive (doi:10.1016/j.tca.2018.05.010).
Several values for one entry are separate records, joined by “and”; a condition that tells them apart may be missing. Equal values may be shown once. Numbers after ± are expanded uncertainties.

Experiments:
[1] = Crystal; for vapor or sublimation pressure: Transpiration method; for Normal melting temperature: DTA
[2] = Molar enthalpy of transition or fusion; conditions: Crystal; DSC

vapor or sublimation pressure ([1]; 362.7 K) [kPa]	vapor or sublimation pressure ([1]; 367.8 K) [kPa]	vapor or sublimation pressure ([1]; 373 K) [kPa]	vapor or sublimation pressure ([1]; 388 K) [kPa]	vapor or sublimation pressure ([1]; 392.7 K) [kPa]	Normal melting temperature [1] [°C]	Molar enthalpy of transition or fusion [2] [kcal/mol]	vapor or sublimation pressure ([1]; 352.9 K) [kPa]	vapor or sublimation pressure ([1]; 358.2 K) [kPa]	vapor or sublimation pressure ([1]; 362.9 K) [kPa]	vapor or sublimation pressure ([1]; 373.2 K) [kPa]	vapor or sublimation pressure ([1]; 387.9 K) [kPa]	SMILES	vapor or sublimation pressure ([1]; 378 K)	vapor or sublimation pressure ([1]; 383 K)
0.0016 ± 0.00062	0.00264 ± 0.001	0.00431 ± 0.0016	0.0164 ± 0.0061	0.0241 ± 0.0088	134.6 ± 1.1	5.93 ± 0.143						O=C(O)[C@@H](O)c1ccccc1 [(S)-2-hydroxy-2-phenylacetic acid]	0.00647 ± 0.0026 kPa	0.0109 ± 0.0042 kPa and 0.0107 ± 0.0041 kPa
	0.00284 ± 0.0011				121.2 ± 1.1	6 ± 0.167	0.00068 ± 0.0003	0.00116 ± 0.00048	0.00193 ± 0.00074	0.0051 ± 0.0022	0.0179 ± 0.0067	O=C(O)C(O)c1ccccc1 (stereo not drawn) [mandelic acid]	0.0076 ± 0.003 kPa and 0.00771 ± 0.0031 kPa	
